Test results published in ChEMBL document CHEMBL1201862, “PubChem BioAssay data set” (2004).
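All cell lines were grown in 96-well plates and treated with compound for 48 hours. GI50 = concentration required for 50% inhibition of growth.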 Activity calls are given as the source filed them. No stated cut-off is given here; in the data, active = GI50 up to about 1.1 µM and inactive = higher. Where a SMILES comes first, the peptide text is derived from it. The star is where a group is joined. Boc = CC(C)(C)OC(=O)*

Legend:
Assay in all cases: DTP human tumour cell line panel, 48 h
MCF7 = system: MCF7
KM12 = system: KM12
OVCAR-3 = system: OVCAR-3
M14 = system: M14
HL-60 = system: HL-60
SK-MEL-5 = system: SK-MEL-5
A549 = system: A549
MDA-MB-231 = system: MDA-MB-231
DU-145 = system: DU-145
RXF 393 = system: RXF 393
UACC-62 = system: UACC-62
CCRF-CEM = system: CCRF-CEM
786-0 = system: 786-0
A498 = system: A498
NCI-H23 = system: NCI-H23
RPMI-8226 = system: RPMI-8226
SR = system: SR
ACHN = system: ACHN
SK-OV-3 = system: SK-OV-3
NCI-H522 = system: NCI-H522

Measured: GI50

O=C1C(NCCF)=C(Cl)C(=O)c2ncccc21
active: MCF7 0.716 µM | M14 0.869 µM | HL-60 0.413 µM | SK-MEL-5 0.145 µM | DU-145 1.11 µM | RXF 393 0.736 µM | UACC-62 0.247 µM | CCRF-CEM 0.204 µM | NCI-H23 0.653 µM | RPMI-8226 0.49 µM
inactive: KM12 1.54 µM | OVCAR-3 2.48 µM | A549 1.73 µM | MDA-MB-231 2.19 µM | 786-0 1.19 µM | A498 1.63 µM | SR 2.36 µM | ACHN 1.53 µM | SK-OV-3 1.77 µM

c1ccc(C2(c3cc4ccccc4[nH]3)OCCO2)cc1
inactive: MCF7 31 µM | KM12 37.8 µM | OVCAR-3 53.5 µM | M14 33.3 µM | SK-MEL-5 23.1 µM | A549 39.4 µM | MDA-MB-231 > 100 µM | DU-145 65.3 µM | RXF 393 > 100 µM | UACC-62 38.8 µM | CCRF-CEM 18.4 µM | 786-0 > 100 µM | A498 37.2 µM | NCI-H23 > 100 µM | RPMI-8226 27.3 µM | SR 22.4 µM | ACHN 35.9 µM | SK-OV-3 85.1 µM

CCOC(=O)c1c(NC(=O)c2ccccc2)c(C#N)c2n1CCCCC2
inactive: MCF7 > 100 µM | KM12 > 100 µM | M14 > 100 µM | HL-60 > 100 µM | SK-MEL-5 > 100 µM | A549 > 100 µM | MDA-MB-231 > 100 µM | DU-145 > 100 µM | RXF 393 > 100 µM | UACC-62 > 100 µM | CCRF-CEM > 100 µM | 786-0 > 100 µM | NCI-H23 > 100 µM | RPMI-8226 > 100 µM | SR > 100 µM | ACHN > 100 µM | SK-OV-3 > 100 µM | NCI-H522 > 100 µM

O=C(/C=C1\C[C@H]2C=Nc3ccccc3C(=O)N2C1)NCCCCNC(=O)/C=C1\C[C@H]2C=Nc3ccccc3C(=O)N2C1
inactive: MCF7 12.4 µM | KM12 17.5 µM | OVCAR-3 7.82 µM | M14 6.12 µM | HL-60 3.3 µM | SK-MEL-5 12.8 µM | A549 20.7 µM | DU-145 15.2 µM | RXF 393 6.15 µM | UACC-62 15.3 µM | CCRF-CEM 1.39 µM | 786-0 1.75 µM | A498 18.7 µM | NCI-H23 11.3 µM | RPMI-8226 4.24 µM | ACHN 3.61 µM | SK-OV-3 18.3 µM | NCI-H522 1.4 µM
active: MDA-MB-231 0.494 µM

Cc1nn(C(=O)Cc2ccccc2)c2c1C(c1ccccc1[N+](=O)[O-])SC(=N)N2 (centres undefined)
inactive: MCF7 > 100 µM | KM12 > 100 µM | M14 > 100 µM | HL-60 > 100 µM | SK-MEL-5 > 100 µM | A549 > 100 µM | MDA-MB-231 > 100 µM | DU-145 > 100 µM | UACC-62 > 100 µM | CCRF-CEM > 100 µM | 786-0 > 100 µM | A498 > 100 µM | NCI-H23 > 100 µM | RPMI-8226 > 100 µM | SR > 100 µM | ACHN > 100 µM | SK-OV-3 > 100 µM | NCI-H522 > 100 µM

Cc1ccc(CC(=O)Nc2ccc(NC(=O)/C=C/NC(=O)/C=C/c3ccc(-c4ccccc4)cc3)cc2C(=O)c2ccccc2)cc1
inactive: MCF7 1.72 µM | KM12 2.93 µM | OVCAR-3 1.88 µM | M14 2.56 µM | HL-60 16.9 µM | SK-MEL-5 2.09 µM | A549 1.77 µM | MDA-MB-231 1.87 µM | DU-145 3.94 µM | RXF 393 1.46 µM | UACC-62 2.16 µM | CCRF-CEM 2.16 µM | 786-0 1.6 µM | A498 2.31 µM | NCI-H23 1.85 µM | RPMI-8226 2.4 µM | ACHN 3.08 µM | SK-OV-3 1.85 µM

C=CCOCn1ccc(N)nc1=O
inactive: MCF7 > 100 µM | KM12 > 100 µM | M14 > 100 µM | HL-60 > 100 µM | SK-MEL-5 > 100 µM | A549 > 100 µM | MDA-MB-231 > 100 µM | DU-145 > 100 µM | UACC-62 > 100 µM | CCRF-CEM > 100 µM | 786-0 > 100 µM | NCI-H23 > 100 µM | RPMI-8226 > 100 µM | SR > 100 µM | SK-OV-3 > 100 µM | NCI-H522 > 100 µM

O=C1CCc2cc3c(cc21)C(C(=O)O)CC3 (centres undefined)
inactive: MCF7 > 100 µM | KM12 > 100 µM | M14 > 100 µM | HL-60 > 100 µM | SK-MEL-5 > 100 µM | A549 > 100 µM | MDA-MB-231 > 100 µM | DU-145 > 100 µM | RXF 393 30.8 µM | UACC-62 > 100 µM | CCRF-CEM > 100 µM | 786-0 > 100 µM | NCI-H23 > 100 µM | RPMI-8226 > 100 µM | SR > 100 µM | ACHN > 100 µM | SK-OV-3 > 100 µM | NCI-H522 > 100 µM

COC(=O)C(Cc1c[nH]c2ccccc12)NC(=O)C(Cc1c[nH]c2ccccc12)NC(=O)C(Cc1c[nH]c2ccccc12)NC(=O)C(Cc1c[nH]c2ccccc12)NC(=O)C(Cc1c[nH]c2ccccc12)NC(=O)C(Cc1c[nH]c2ccccc12)NC(=O)C(Cc1c[nH]c2ccccc12)NC(=O)C(Cc1c[nH]c2ccccc12)NC(=O)OC(C)(C)C (centres undefined) (Boc-WWWWWWWW-OMe; configuration not given here)
inactive: MCF7 > 100 µM | OVCAR-3 83.6 µM | M14 12.6 µM | HL-60 24.8 µM | SK-MEL-5 24.3 µM | A549 86.5 µM | MDA-MB-231 > 100 µM | DU-145 35.5 µM | UACC-62 28.5 µM | CCRF-CEM 34.4 µM | 786-0 > 100 µM | A498 20 µM | NCI-H23 29 µM | RPMI-8226 57.9 µM | SR 59.7 µM | ACHN > 100 µM | NCI-H522 17.4 µM

O=C1c2ccccc2C(=O)N1CCc1nc(-c2ccccc2)c[nH]1
inactive: MCF7 > 100 µM | KM12 > 100 µM | OVCAR-3 > 100 µM | M14 > 100 µM | HL-60 > 100 µM | SK-MEL-5 > 100 µM | A549 > 100 µM | MDA-MB-231 > 100 µM | DU-145 > 100 µM | UACC-62 > 100 µM | CCRF-CEM > 100 µM | 786-0 > 100 µM | A498 > 100 µM | NCI-H23 > 100 µM | SR > 100 µM | ACHN > 100 µM | SK-OV-3 > 100 µM | NCI-H522 > 100 µM

O=C(/C=C1\N=C(c2ccccc2)N(c2ccc3c(c2)Sc2cc(N4C(=O)/C(=C/C(=O)/C=C/c5ccccc5)N=C4c4ccccc4)ccc2N3)C1=O)/C=C/c1ccccc1
inactive: MCF7 23.9 µM | KM12 > 100 µM | OVCAR-3 24.9 µM | M14 64 µM | HL-60 40.6 µM | SK-MEL-5 18.7 µM | A549 > 100 µM | MDA-MB-231 38 µM | DU-145 > 100 µM | RXF 393 27.3 µM | UACC-62 18.2 µM | CCRF-CEM 24.4 µM | 786-0 42.2 µM | A498 27.9 µM | NCI-H23 50.4 µM | RPMI-8226 31.6 µM | ACHN > 100 µM | SK-OV-3 18.3 µM | NCI-H522 20.9 µM

CN1CCc2c(sc3ncn(C)c(=N)c23)C1
inactive: MCF7 > 100 µM | KM12 > 100 µM | OVCAR-3 > 100 µM | M14 > 100 µM | HL-60 > 100 µM | SK-MEL-5 > 100 µM | A549 > 100 µM | MDA-MB-231 > 100 µM | DU-145 > 100 µM | RXF 393 > 100 µM | UACC-62 > 100 µM | CCRF-CEM > 100 µM | 786-0 > 100 µM | A498 > 100 µM | NCI-H23 > 100 µM | RPMI-8226 > 100 µM | ACHN > 100 µM | SK-OV-3 > 100 µM | NCI-H522 > 100 µM

CCCCCCNC(=O)c1cc(NCc2cc(OC)ccc2OC)ccc1O
inactive: MCF7 22.1 µM | KM12 24.8 µM | M14 18.7 µM | HL-60 14.4 µM | SK-MEL-5 14.5 µM | A549 29.6 µM | MDA-MB-231 18.7 µM | DU-145 24.2 µM | RXF 393 18.7 µM | UACC-62 15 µM | CCRF-CEM 20.5 µM | 786-0 27.9 µM | NCI-H23 24.7 µM | RPMI-8226 12.2 µM | ACHN 32.8 µM | SK-OV-3 13.1 µM | NCI-H522 14.3 µM
active: OVCAR-3 0.865 µM

C[C@@H]1S[C@H](c2c(F)cccc2Cl)n2c1nc1ccccc12
inactive: MCF7 25.2 µM | KM12 5.53 µM | OVCAR-3 14.9 µM | M14 15.2 µM | A549 17.1 µM | MDA-MB-231 11.5 µM | DU-145 27.2 µM | RXF 393 14.5 µM | UACC-62 8.81 µM | CCRF-CEM 10.6 µM | 786-0 14.8 µM | NCI-H23 14.5 µM | RPMI-8226 4.44 µM | SR 7.23 µM | ACHN 27.9 µM | SK-OV-3 28.4 µM

CC(=O)N(C)CCc1c[nH]c2ccccc12
inactive: MCF7 > 100 µM | KM12 > 100 µM | OVCAR-3 > 100 µM | M14 > 100 µM | HL-60 > 100 µM | SK-MEL-5 > 100 µM | A549 > 100 µM | MDA-MB-231 > 100 µM | DU-145 > 100 µM | UACC-62 > 100 µM | CCRF-CEM > 100 µM | 786-0 > 100 µM | NCI-H23 > 100 µM | RPMI-8226 > 100 µM | SR > 100 µM | ACHN > 100 µM | SK-OV-3 > 100 µM | NCI-H522 > 100 µM
